Legend:
[1] = system: IL-2 stimulated STAT5 phosphorylation in Tall-1 human T cell line (JAK3); assay: Cellular JAK3 potency assay: inhibition of IL-2 stimulated pSTAT5 in Tall-1 T cells; format: cell-based; settings: IL-2 stimulated pSTAT5, Tall-1 T cells
Outline: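 AlphaLISA SureFire Ultra measures STAT5 Tyr694/699 phosphorylation in lysed Tall-1 human T cells. Cells were exposed to compound for 1 h at 37 °C before a 30 min IL-2 challenge (300 ng/ml final). Values are pIC50 means with standard deviation from signal-versus-concentration curves.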

JAK2 = JAK2 (Homo sapiens (Human), UniProt O60674); assay: Biochemical JAK2 kinase assay (LanthaScreen)
Chain of JAK2 (O60674 whole entry): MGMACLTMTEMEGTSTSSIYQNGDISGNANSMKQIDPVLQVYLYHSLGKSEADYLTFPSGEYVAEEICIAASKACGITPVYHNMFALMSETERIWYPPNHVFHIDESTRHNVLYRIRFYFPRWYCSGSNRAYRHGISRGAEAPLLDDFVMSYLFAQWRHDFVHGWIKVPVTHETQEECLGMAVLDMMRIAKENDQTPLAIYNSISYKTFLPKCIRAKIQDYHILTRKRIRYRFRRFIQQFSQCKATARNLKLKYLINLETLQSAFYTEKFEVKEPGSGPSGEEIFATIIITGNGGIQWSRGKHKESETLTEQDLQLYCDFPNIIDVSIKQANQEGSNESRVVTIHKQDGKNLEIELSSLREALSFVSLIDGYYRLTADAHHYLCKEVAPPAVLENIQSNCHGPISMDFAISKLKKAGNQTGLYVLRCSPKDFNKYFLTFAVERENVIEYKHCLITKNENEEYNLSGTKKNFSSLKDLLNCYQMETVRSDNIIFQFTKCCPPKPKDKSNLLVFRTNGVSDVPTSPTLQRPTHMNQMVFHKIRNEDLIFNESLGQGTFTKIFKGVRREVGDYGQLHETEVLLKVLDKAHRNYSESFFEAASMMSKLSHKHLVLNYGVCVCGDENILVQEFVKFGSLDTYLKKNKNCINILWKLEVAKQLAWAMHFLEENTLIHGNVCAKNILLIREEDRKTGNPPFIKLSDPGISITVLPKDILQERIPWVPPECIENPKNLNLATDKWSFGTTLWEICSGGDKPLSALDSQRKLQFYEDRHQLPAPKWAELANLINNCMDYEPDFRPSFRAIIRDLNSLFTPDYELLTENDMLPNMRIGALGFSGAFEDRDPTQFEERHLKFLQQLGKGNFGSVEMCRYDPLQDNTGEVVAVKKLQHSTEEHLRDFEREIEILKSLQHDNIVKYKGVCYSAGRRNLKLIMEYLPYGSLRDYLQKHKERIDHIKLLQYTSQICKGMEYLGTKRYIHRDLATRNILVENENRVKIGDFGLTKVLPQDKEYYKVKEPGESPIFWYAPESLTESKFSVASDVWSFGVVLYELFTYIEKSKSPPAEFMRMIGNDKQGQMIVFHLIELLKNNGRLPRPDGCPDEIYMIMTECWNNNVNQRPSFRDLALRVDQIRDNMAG
Outline: (§1)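 GST-JAK + GFP-STAT1 peptide, HEPES pH 7.5/MgCl2/EGTA/Brij-35 buffer; cpd preincubation 1 h RT; ATP start, 1 h RT; stop with 10 mM EDTA + 2 nM Tb-anti-pSTAT1; TR-FRET 520/495. 4-parameter IC50 → pKi (Cheng-Prusoff).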

JAK3 = JAK3 (Homo sapiens (Human), UniProt P52333); assay: Biochemical JAK3 kinase assay (LanthaScreen); settings: for JAK3 (pKi)-JAK1 (pKi): selectivity JAK3 over JAK1, difference of pKi
Chain of JAK3 (P52333 whole entry): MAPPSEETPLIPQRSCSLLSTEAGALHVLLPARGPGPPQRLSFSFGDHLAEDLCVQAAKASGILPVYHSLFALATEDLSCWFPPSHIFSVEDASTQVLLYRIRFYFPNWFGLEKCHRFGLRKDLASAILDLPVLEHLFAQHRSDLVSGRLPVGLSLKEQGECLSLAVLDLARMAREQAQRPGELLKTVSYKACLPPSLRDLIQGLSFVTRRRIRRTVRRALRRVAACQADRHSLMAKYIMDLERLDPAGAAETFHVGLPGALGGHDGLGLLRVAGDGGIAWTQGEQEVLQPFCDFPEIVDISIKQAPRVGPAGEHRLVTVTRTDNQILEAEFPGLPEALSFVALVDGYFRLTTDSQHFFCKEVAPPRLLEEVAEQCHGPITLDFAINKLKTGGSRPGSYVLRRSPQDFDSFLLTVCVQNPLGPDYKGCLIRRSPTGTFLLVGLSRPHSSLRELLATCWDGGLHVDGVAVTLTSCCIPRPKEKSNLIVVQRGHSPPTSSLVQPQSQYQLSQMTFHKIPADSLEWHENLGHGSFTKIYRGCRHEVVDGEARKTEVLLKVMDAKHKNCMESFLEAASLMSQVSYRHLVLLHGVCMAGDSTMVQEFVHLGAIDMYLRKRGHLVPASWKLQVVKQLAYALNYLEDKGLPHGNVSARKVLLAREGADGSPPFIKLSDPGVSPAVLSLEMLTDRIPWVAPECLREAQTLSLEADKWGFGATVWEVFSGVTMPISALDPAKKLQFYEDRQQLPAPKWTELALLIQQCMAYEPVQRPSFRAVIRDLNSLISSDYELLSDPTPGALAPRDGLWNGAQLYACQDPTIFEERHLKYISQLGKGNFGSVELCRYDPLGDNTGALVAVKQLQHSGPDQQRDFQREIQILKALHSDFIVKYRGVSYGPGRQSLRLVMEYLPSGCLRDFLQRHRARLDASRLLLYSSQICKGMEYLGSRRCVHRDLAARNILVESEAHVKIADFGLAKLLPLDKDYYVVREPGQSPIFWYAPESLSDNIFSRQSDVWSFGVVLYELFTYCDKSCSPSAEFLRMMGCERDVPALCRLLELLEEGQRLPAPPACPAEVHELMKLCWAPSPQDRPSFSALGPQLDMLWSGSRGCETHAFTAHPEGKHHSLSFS
Outline: as §1

Caco-2 cell monolayers = assay: Caco-2 permeation assay; format: in vitro ADME; settings: 5 μM, A-B direction, with Verapamil (25 μM)
Description: Assay 4: Caco-2 Permeation Assay
The Caco-2 permeation assay was performed to model the ability of test compounds to pass through the intestine and get into the blood stream after oral administration. The rate at which test compounds in solution permeate a cell monolayer designed to mimic the tight junction of human small intestinal monolayers was determined.
CacoReady 24-well transwell plates were obtained from ADMEcell (Alameda, Calif.). The compounds were evaluated at a concentration of 5 μM from 10 mM DMSO stock solutions in duplicate (n=2). The passive permeability of the compounds tested was evaluated using Caco-2 cell monolayers along with Verapamil (25 μM) to inhibit P-gp transport proteins in the apical to basolateral (A-B) direction. The experiment was conducted in a 37° C., 5% CO2 incubator. Caco-2 culture media consisted of standard filtered DMEM, FCS 10%, L-Glutamine 1% and PenStrep 1%. Basal assay plate was prepared by adding 750 μL of transport buffer to A-B wells. A CacoReady™ plate was prepared by removing the Caco-2 media from the apical wells and replacing with fresh transport media (200 μL repeated for a total of 3 washes). Blank media (200 μL) was then replaced with diluted compound for A-B wells. To begin the incubation, the basal plate was removed from the incubator and the apical section was added on top of it. Samples (40 μL) were collected from the apical and basal compartments for time zero (t0). Samples were collected again after 120 minutes (t120) from the apical and basal compartments. All samples were diluted and prepared for bioanalysis by LC-MS/MS. The permeation coefficient (Kp, mean A to B+ Verapamil Papparent) in cm/sec was calculated as dQ (flux)/(dt×Area×concentration).
In this assay, a Kp value less than about 5×10^−6 cm/sec is considered favorable to minimize systemic exposure and target the colon. A Kp value less than about 10×10^−6 cm/sec may also be sufficient to minimize systemic exposure and target the colon.

Tyk2 = Tyk2 (Homo sapiens (Human), UniProt P29597); assay: Biochemical Tyk2 kinase assay (LanthaScreen)
Chain of Tyk2 (P29597 whole entry): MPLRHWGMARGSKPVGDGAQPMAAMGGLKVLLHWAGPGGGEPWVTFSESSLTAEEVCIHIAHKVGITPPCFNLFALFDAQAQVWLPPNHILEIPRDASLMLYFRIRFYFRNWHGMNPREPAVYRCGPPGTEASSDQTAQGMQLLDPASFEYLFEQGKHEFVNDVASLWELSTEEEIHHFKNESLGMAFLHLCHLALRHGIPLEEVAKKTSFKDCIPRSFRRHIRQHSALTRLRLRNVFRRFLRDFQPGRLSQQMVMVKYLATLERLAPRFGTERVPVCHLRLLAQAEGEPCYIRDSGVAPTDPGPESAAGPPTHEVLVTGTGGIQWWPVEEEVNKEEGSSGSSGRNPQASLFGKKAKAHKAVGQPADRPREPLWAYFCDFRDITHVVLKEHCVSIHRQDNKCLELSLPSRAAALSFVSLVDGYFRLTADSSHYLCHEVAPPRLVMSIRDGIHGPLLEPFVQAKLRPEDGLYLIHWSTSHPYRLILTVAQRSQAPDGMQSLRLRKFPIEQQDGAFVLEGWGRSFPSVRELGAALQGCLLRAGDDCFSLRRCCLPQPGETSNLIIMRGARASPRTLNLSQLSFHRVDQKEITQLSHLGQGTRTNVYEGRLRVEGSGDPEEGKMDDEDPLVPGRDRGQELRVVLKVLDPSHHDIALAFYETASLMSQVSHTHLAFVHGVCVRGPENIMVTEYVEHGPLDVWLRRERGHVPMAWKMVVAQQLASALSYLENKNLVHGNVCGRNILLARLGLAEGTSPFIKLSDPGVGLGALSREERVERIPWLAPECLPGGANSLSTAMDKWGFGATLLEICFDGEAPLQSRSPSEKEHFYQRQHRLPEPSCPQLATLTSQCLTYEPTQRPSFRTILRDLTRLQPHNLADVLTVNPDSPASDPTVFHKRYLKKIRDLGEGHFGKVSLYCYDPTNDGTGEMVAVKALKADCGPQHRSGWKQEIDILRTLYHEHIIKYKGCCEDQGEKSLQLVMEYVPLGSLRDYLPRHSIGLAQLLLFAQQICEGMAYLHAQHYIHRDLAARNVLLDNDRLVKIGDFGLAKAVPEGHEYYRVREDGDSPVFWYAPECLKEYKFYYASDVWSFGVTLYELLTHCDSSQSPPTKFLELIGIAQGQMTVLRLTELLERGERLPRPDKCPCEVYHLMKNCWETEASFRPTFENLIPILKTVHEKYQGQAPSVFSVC
Outline: as §1

JAK1 = JAK1 (Homo sapiens (Human), UniProt P23458); assay: Biochemical JAK1 kinase assay (LanthaScreen)
Chain of JAK1 (P23458 whole entry): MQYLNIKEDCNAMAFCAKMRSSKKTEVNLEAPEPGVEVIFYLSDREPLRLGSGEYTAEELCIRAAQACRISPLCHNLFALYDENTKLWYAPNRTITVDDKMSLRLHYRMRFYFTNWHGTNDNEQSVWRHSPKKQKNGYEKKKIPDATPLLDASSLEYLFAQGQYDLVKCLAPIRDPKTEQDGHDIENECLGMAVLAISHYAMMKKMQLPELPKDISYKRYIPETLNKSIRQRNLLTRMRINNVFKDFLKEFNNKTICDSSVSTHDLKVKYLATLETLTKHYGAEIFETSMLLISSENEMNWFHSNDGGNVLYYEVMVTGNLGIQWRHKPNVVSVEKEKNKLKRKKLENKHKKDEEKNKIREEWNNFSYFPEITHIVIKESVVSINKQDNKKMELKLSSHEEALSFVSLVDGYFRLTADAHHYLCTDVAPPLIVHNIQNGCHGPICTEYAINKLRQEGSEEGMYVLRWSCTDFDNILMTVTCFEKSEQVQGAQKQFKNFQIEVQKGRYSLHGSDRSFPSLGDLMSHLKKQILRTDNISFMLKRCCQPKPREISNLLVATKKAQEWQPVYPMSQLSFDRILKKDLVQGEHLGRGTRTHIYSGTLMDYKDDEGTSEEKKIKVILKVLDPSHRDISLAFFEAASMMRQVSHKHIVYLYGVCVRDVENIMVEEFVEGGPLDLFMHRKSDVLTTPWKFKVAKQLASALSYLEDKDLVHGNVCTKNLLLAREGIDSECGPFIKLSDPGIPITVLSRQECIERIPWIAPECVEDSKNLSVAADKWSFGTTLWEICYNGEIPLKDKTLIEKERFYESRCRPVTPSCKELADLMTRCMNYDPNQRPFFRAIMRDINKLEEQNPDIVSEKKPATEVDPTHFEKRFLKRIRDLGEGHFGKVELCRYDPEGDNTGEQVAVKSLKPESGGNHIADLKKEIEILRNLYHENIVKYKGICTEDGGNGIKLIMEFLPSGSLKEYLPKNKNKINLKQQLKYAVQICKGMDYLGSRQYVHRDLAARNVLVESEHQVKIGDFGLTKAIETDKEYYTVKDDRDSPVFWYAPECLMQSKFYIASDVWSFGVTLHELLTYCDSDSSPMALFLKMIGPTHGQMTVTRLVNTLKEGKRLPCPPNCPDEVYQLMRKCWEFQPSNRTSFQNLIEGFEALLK
Outline: as §1

## C=CC(=O)N1CC(CCn2c(=O)ccc3cnc(Nc4ccc(N5C[C@@H](C)N(C(C)=O)[C@@H](C)C5)cc4)nc32)C1 [Example 178]
[1]
  Tall-1 (pIC50): B (B represents a pC50 value between 6.7 (included) and 7.5 (IC50 between 200 nM and 32 nM))
JAK2
  JAK 2 (pKi): E (E represents a pKi value of 7 or below (Ki of 100 nM or above))
JAK3
  JAK 3 (pKi): A (A represents a pKi value≥10 (Ki≤0.1 nM))
  JAK3 (pKi)-JAK1 (pKi): A (A represents a value of 3 or above)
Caco-2 cell monolayers
  Caco Kp: C (C represents a value between 10×10^−6 and 30×10^−6 cm/sec)
Tyk2
  Tyk 2 (pKi): E (E represents a pKi value of 7 or below (Ki of 100 nM or above))
JAK1
  JAK 1 (pKi): E (E represents a pKi value of 7 or below (Ki of 100 nM or above))

## C=CC(=O)N1CCN(CCn2c(=O)ccc3cnc(Nc4cnn(C5CCN(C)CC5)c4)nc32)[C@@H](CC)C1 [Example 196]
[1]
  Tall-1 (pIC50): B (B represents a pC50 value between 6.7 (included) and 7.5 (IC50 between 200 nM and 32 nM))
JAK2
  JAK 2 (pKi): E (E represents a pKi value of 7 or below (Ki of 100 nM or above))
JAK3
  JAK 3 (pKi): B (B represents pKi value between 9 and 10 (Ki between 1 nM and 0.1 nM))
  JAK3 (pKi)-JAK1 (pKi): A (A represents a value of 3 or above)
Caco-2 cell monolayers
  Caco Kp: A (A represents a value below 5×10^−6 cm/sec)
Tyk2
  Tyk 2 (pKi): E (E represents a pKi value of 7 or below (Ki of 100 nM or above))
JAK1
  JAK 1 (pKi): E (E represents a pKi value of 7 or below (Ki of 100 nM or above))

## C=CC(=O)N1CC(CCn2c(=O)ccc3cnc(Nc4ccc(N5CCN(C(=O)C(F)(F)F)CC5)cc4)nc32)C1 [Example 109]
[1]
  Tall-1 (pIC50): B (B represents a pC50 value between 6.7 (included) and 7.5 (IC50 between 200 nM and 32 nM))
JAK2
  JAK 2 (pKi): E (E represents a pKi value of 7 or below (Ki of 100 nM or above))
JAK3
  JAK 3 (pKi): B (B represents pKi value between 9 and 10 (Ki between 1 nM and 0.1 nM))
  JAK3 (pKi)-JAK1 (pKi): B (B represents a value of 2.5 to 3)
Caco-2 cell monolayers
  Caco Kp: C (C represents a value between 10×10^−6 and 30×10^−6 cm/sec)
Tyk2
  Tyk 2 (pKi): E (E represents a pKi value of 7 or below (Ki of 100 nM or above))
JAK1
  JAK 1 (pKi): D (D represents a pKi value between 7 and 8 (Ki between 100 nM and 10 nM))

## C=CC(=O)N1CCN(CCn2c(=O)ccc3cnc(Nc4ccc(N5CCN(C(C)C)CC5)cc4)nc32)CC1 [Example 205]
[1]
  Tall-1 (pIC50): A (A represents a pIC50 value≥7.5 (IC50≤32 nM))
JAK2
  JAK 2 (pKi): E (E represents a pKi value of 7 or below (Ki of 100 nM or above))
JAK3
  JAK 3 (pKi): B (B represents pKi value between 9 and 10 (Ki between 1 nM and 0.1 nM))
  JAK3 (pKi)-JAK1 (pKi): A (A represents a value of 3 or above)
Caco-2 cell monolayers
  Caco Kp: B (B represents a value between 5×10^−6 and 10×10^−6 cm/sec)
Tyk2
  Tyk 2 (pKi): E (E represents a pKi value of 7 or below (Ki of 100 nM or above))
JAK1
  JAK 1 (pKi): E (E represents a pKi value of 7 or below (Ki of 100 nM or above))

## C=CC(=O)N1CC(CCn2c(=O)ccc3cnc(Nc4ccc(N5CCN(C(=O)CCS(C)(=O)=O)CC5)cc4)nc32)C1 [Example 140]
[1]
  Tall-1 (pIC50): C (C represents a pIC50 value between 6 and 6.7 (IC50 between 1 μM and 200 nM))
JAK2
  JAK 2 (pKi): E (E represents a pKi value of 7 or below (Ki of 100 nM or above))
JAK3
  JAK 3 (pKi): A (A represents a pKi value≥10 (Ki≤0.1 nM))
  JAK3 (pKi)-JAK1 (pKi): A (A represents a value of 3 or above)
Caco-2 cell monolayers
  Caco Kp: A (A represents a value below 5×10^−6 cm/sec)
Tyk2
  Tyk 2 (pKi): E (E represents a pKi value of 7 or below (Ki of 100 nM or above))
JAK1
  JAK 1 (pKi): E (E represents a pKi value of 7 or below (Ki of 100 nM or above))

## C=CC(=O)N1CC(CCn2c(=O)ccc3cnc(Nc4ccc(N5CCN(C(C)(C)C)CC5)cc4)nc32)C1 [Example 62]
[1]
  Tall-1 (pIC50): A (A represents a pIC50 value≥7.5 (IC50≤32 nM))
JAK2
  JAK 2 (pKi): E (E represents a pKi value of 7 or below (Ki of 100 nM or above))
JAK3
  JAK 3 (pKi): B (B represents pKi value between 9 and 10 (Ki between 1 nM and 0.1 nM))
  JAK3 (pKi)-JAK1 (pKi): A (A represents a value of 3 or above)
Caco-2 cell monolayers
  Caco Kp: B (B represents a value between 5×10^−6 and 10×10^−6 cm/sec)
Tyk2
  Tyk 2 (pKi): E (E represents a pKi value of 7 or below (Ki of 100 nM or above))
JAK1
  JAK 1 (pKi): E (E represents a pKi value of 7 or below (Ki of 100 nM or above))

## C=CC(=O)N1CCN(CCn2c(=O)ccc3cnc(Nc4ccc(N5CCN(S(=O)(=O)CCOC)CC5)cc4)nc32)[C@@H](CC)C1 [Example 191]
[1]
  Tall-1 (pIC50): B (B represents a pC50 value between 6.7 (included) and 7.5 (IC50 between 200 nM and 32 nM))
JAK2
  JAK 2 (pKi): E (E represents a pKi value of 7 or below (Ki of 100 nM or above))
JAK3
  JAK 3 (pKi): A (A represents a pKi value≥10 (Ki≤0.1 nM))
  JAK3 (pKi)-JAK1 (pKi): A (A represents a value of 3 or above)
Caco-2 cell monolayers
  Caco Kp: B (B represents a value between 5×10^−6 and 10×10^−6 cm/sec)
Tyk2
  Tyk 2 (pKi): E (E represents a pKi value of 7 or below (Ki of 100 nM or above))
JAK1
  JAK 1 (pKi): E (E represents a pKi value of 7 or below (Ki of 100 nM or above))

## C=CC(=O)N1CC(CCn2c(=O)ccc3cnc(Nc4ccc(N5CCN(C(=S)N(C)C)CC5)cc4)nc32)C1 [Example 95]
[1]
  Tall-1 (pIC50): A (A represents a pIC50 value≥7.5 (IC50≤32 nM))
JAK2
  JAK 2 (pKi): E (E represents a pKi value of 7 or below (Ki of 100 nM or above))
JAK3
  JAK 3 (pKi): A (A represents a pKi value≥10 (Ki≤0.1 nM))
  JAK3 (pKi)-JAK1 (pKi): A (A represents a value of 3 or above)
Caco-2 cell monolayers
  Caco Kp: A (A represents a value below 5×10^−6 cm/sec)
Tyk2
  Tyk 2 (pKi): E (E represents a pKi value of 7 or below (Ki of 100 nM or above))
JAK1
  JAK 1 (pKi): E (E represents a pKi value of 7 or below (Ki of 100 nM or above))

## C=CC(=O)N1CCN(CCn2c(=O)ccc3cnc(Nc4ccc(N5CCN(S(C)(=O)=O)CC5)cc4)nc32)CC1 [Example 130]
[1]
  Tall-1 (pIC50): B (B represents a pC50 value between 6.7 (included) and 7.5 (IC50 between 200 nM and 32 nM))
JAK2
  JAK 2 (pKi): E (E represents a pKi value of 7 or below (Ki of 100 nM or above))
JAK3
  JAK 3 (pKi): B (B represents pKi value between 9 and 10 (Ki between 1 nM and 0.1 nM))
  JAK3 (pKi)-JAK1 (pKi): A (A represents a value of 3 or above)
Caco-2 cell monolayers
  Caco Kp: A (A represents a value below 5×10^−6 cm/sec)
Tyk2
  Tyk 2 (pKi): E (E represents a pKi value of 7 or below (Ki of 100 nM or above))
JAK1
  JAK 1 (pKi): E (E represents a pKi value of 7 or below (Ki of 100 nM or above))

## C=CC(=O)N1CC(CCn2c(=O)ccc3cnc(Nc4cnn(C5CCN(C)CC5)c4)nc32)C1 [Example 51]
[1]
  Tall-1 (pIC50): B (B represents a pC50 value between 6.7 (included) and 7.5 (IC50 between 200 nM and 32 nM))
JAK2
  JAK 2 (pKi): E (E represents a pKi value of 7 or below (Ki of 100 nM or above))
JAK3
  JAK 3 (pKi): B (B represents pKi value between 9 and 10 (Ki between 1 nM and 0.1 nM))
  JAK3 (pKi)-JAK1 (pKi): A (A represents a value of 3 or above)
Caco-2 cell monolayers
  Caco Kp: A (A represents a value below 5×10^−6 cm/sec)
Tyk2
  Tyk 2 (pKi): E (E represents a pKi value of 7 or below (Ki of 100 nM or above))
JAK1
  JAK 1 (pKi): E (E represents a pKi value of 7 or below (Ki of 100 nM or above))

From patent US11697648B2, “Fused pyrimidine pyridinone compounds as JAK inhibitors” (THERAVANCE BIOPHARMA R&D IP, LLC, priority 2019, dated 2023)
